Like-named read-outs stand apart in the source and are kept apart here.
Assays:
[1] = test system: human lung cancer strain NCI-H441;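 also: cell proliferation inhibition after four days measured by CellTiter-Glo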
[2] = biological target: GDP-bound NRAS wild-type protein (Homo sapiens, UniProt P01111); assay: Binding to NRAS by surface plasmon resonance (SPR), Single Cycle Kinetics; conditions: for NRAS/KRAS (ratio of KD value for NRAS to KD value for KRAS): GDP-bound NRAS wild-type protein vs GDP-bound KRAS wild-type protein
Chain of GDP-bound NRAS wild-type protein (P01111 whole entry): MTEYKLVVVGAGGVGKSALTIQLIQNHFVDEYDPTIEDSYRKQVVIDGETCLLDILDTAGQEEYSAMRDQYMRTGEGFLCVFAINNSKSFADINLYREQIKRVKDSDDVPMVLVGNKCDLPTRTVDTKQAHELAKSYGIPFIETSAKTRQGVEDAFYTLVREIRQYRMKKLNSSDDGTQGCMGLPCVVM

[3] = biological target: GDP-bound KRAS wild-type protein (Homo sapiens, UniProt P01116); assay: Binding to KRAS by surface plasmon resonance (SPR), Single Cycle Kinetics
Chain of GDP-bound KRAS wild-type protein (P01116 whole entry): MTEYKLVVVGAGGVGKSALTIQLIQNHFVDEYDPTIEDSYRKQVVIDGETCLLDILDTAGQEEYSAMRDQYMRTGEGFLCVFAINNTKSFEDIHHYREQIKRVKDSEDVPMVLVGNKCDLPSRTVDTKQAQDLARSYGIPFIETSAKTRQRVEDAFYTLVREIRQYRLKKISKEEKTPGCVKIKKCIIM

[4] = biological target: GDP-bound HRAS wild-type protein (Homo sapiens, UniProt P01112); assay: Binding to HRAS by surface plasmon resonance (SPR), Single Cycle Kinetics; conditions: for HRAS/KRAS (ratio of KD value for HRAS to KD value for KRAS): GDP-bound HRAS wild-type protein vs GDP-bound KRAS wild-type protein
Chain of GDP-bound HRAS wild-type protein (P01112 whole entry): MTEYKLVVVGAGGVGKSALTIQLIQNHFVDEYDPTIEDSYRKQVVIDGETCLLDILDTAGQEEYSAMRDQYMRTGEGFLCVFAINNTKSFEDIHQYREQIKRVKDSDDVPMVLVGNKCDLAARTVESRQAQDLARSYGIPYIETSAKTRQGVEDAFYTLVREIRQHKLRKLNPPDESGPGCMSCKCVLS

[5] = SPR, Single Cycle Kinetics, 1:1 binding model, GDP-bound KRAS wild-type protein, read-out: KRAS KD
[6] = SPR, Single Cycle Kinetics, GDP-bound KRAS wild-type protein, read-out: KRAS KD

Compound	IC50 [1] [nM]	NRAS/KRAS (ratio of KD value for NRAS to KD value for KRAS) ([2]; SPR, KD ratio class)	Kd [3, 5] [nM]	HRAS/KRAS (ratio of KD value for HRAS to KD value for KRAS) ([4]; SPR, KD ratio class)	NRAS/KRAS (ratio of KD value for NRAS to KD value for KRAS) ([2]; SPR)	Kd [3, 6] [nM]	HRAS/KRAS (ratio of KD value for HRAS to KD value for KRAS) ([4]; SPR)	also measured
CCO[C@@H]1C[C@H]2C(=O)NC3(CCC3)C(=O)N(C)[C@@H](C(CC)CC)C(=O)N(C)[C@H](C(=O)N(C)C)CC(=O)N(C)[C@@H](CC)C(=O)N[C@@H]([C@@H](C)CC)C(=O)N(C)CC(=O)N(C)[C@H]3C/C=C\CCN(C3=O)[C@@H](Cc3ccc(C(F)(F)F)cc3)C(=O)N(C)CC(=O)N[C@@H](CCc3ccc(Cl)c(Cl)c3)C(=O)N2C1 [PP1215]	33.4	AA (a compound having 20 or more is denoted as AA)	0.42	A (a compound having 10 or more and less than 20 is denoted as A)	–	–	–	–
CCO[C@@H]1C[C@H]2C(=O)NC3(CCCC3)C(=O)N(C)[C@@H](C3CCCC3)C(=O)N(C)[C@H](C(=O)N3CCOCC3)CC(=O)N(C)[C@@H](CC)C(=O)N[C@@H]([C@@H](C)CC)C(=O)N(C)CC(=O)N(C)[C@H]3CC[C@@H](C)CN(C3=O)[C@@H](Cc3ccc(C(F)(F)F)cc3)C(=O)N(C)CC(=O)N[C@@H](CCc3cc(F)c(C(F)(F)F)c(F)c3)C(=O)N2C1 [PP1371]	5.1	A (a compound having 10 or more and less than 20 is denoted as A)	0.077	B (a compound having 3 or more and less than 10 is denoted as B)	–	–	–	–
CCC[C@H]1C(=O)N[C@@H]([C@@H](C)CC)C(=O)N(C)CC(=O)N(C)[C@H]2C/C=C\CCN(C2=O)[C@@H](Cc2ccc(C)cc2)C(=O)N(C)CC(=O)N[C@@H](CCc2cc(F)c(C(F)(F)F)c(F)c2)C(=O)N2C[C@H](OCC)C[C@H]2C(=O)N(C)C2(CCC2)C(=O)N(C)[C@@H](C2CCCC2)C(=O)N(C)[C@H](C(=O)N2CCCC2)CC(=O)N1C [PP3121, (2S,8S,12R,14S,20S,23S,27S,30S,36S,38Z)-20-cyclopentyl-8-[2-[3,5-difluoro-4-(trifluoromethyl)phenyl]ethyl]-12-ethoxy-4,16,19,22,26,32,35-heptamethyl-30-[(1S)-1-methylpropyl]-27-propyl-2-(p-tolylmethyl)-23-(pyrrolidine-1-carbonyl)spiro[1,4,7,10,16,19,22,26,29,32,35-undecazatricyclo[34.5.1.0^10,14]dotetracont-38-ene-17,1′-cyclobutane]-3,6,9,15,18,21,25,28,31,34,42-undecone]	–	–	–	–	A (a compound having 10 or more and less than 20 is denoted as A)	0.043	A (a compound having 10 or more and less than 20 is denoted as A)	IC50 ([1]; read-out: NCI-H441 cell proliferation inhibitory activity, 50% proliferation inhibitory concentration (IC50 value), NCI-H441, four days, CellTiter-Glo): 1.5 nM; ratio of the KD value with respect to GDP-bound NRAS wild-type protein to the KD value with respect to KRAS ([2]; SPR, KD(NRAS)/KD(KRAS)): A (a compound having 10 or more and less than 20 is denoted as A); Kd ([3]; SPR, Single Cycle Kinetics, 1:1 binding model, read-out: KD value with respect to GDP-bound KRAS wild-type protein): 0.043 nM; ratio of the KD value with respect to GDP-bound HRAS wild-type protein to the KD value with respect to KRAS ([4]; SPR, KD(HRAS)/KD(KRAS)): A (a compound having 10 or more and less than 20 is denoted as A)
CCC[C@H]1C(=O)N[C@@H]([C@@H](C)CC)C(=O)N(C)CC(=O)N(C)[C@H]2C/C=C\CCN(C2=O)[C@@H](CC2CCC(F)(F)CC2)C(=O)N(C)CC(=O)N[C@@H](CCc2cc(F)c(C(F)(F)F)c(F)c2)C(=O)N2C[C@H](OCC)C[C@H]2C(=O)NC2(CC(C)(C)C2)C(=O)N(C)[C@@H](C(CC)CC)C(=O)N(C)[C@H](C(=O)N(C)C)CC(=O)N1C [PP2489]	30.5	–	–	–	A (a compound having 10 or more and less than 20 is denoted as A)	0.55	A (a compound having 10 or more and less than 20 is denoted as A)	–
CCC[C@H]1C(=O)N[C@@H]([C@@H](C)CC)C(=O)N(C)CC(=O)N(C)[C@H]2C/C=C\CCN(C2=O)[C@@H](Cc2ccc(C(F)(F)F)cc2)C(=O)N(C)CC(=O)N[C@@H](CCc2ccc(Cl)c(Cl)c2)C(=O)N2C[C@H](OCC)C[C@H]2C(=O)NC2(CC(C)(C)C2)C(=O)N(C)[C@@H](CC2CCC2)C(=O)N(C)[C@H](C(=O)N(C)C)CC(=O)N1C [PP2766]	26	–	–	–	–	–	–	NRAS/KRAS (ratio of KD value with respect to GDP-bound NRAS wild-type protein to KD value with respect to KRAS) ([2]; SPR KD ratio NRAS/KRAS, class symbols): A (a compound having 10 or more and less than 20 is denoted as A); Kd ([3]; SPR Single Cycle Kinetics, GDP-bound KRAS wild-type protein, 1:1 binding model, read-out: KRAS KD): 0.52 nM; HRAS/KRAS (ratio of KD value with respect to GDP-bound HRAS wild-type protein to KD value with respect to KRAS) ([4]; SPR KD ratio HRAS/KRAS, class symbols): A (a compound having 10 or more and less than 20 is denoted as A)
CC[C@H](C)[C@@H]1NC(=O)[C@H](CC)N(C)C(=O)C[C@@H](C(=O)N(C)C)N(C)C(=O)[C@H](C2CCCC2)N(C)C(=O)C2(CCC2)NC(=O)[C@@H]2CC(F)(F)CN2C(=O)[C@H](CCc2cc(F)c(C(F)(F)F)c(F)c2)NC(=O)CN(C)C(=O)[C@H](Cc2ccc(C(F)(F)F)cc2)N2CC/C=C\C[C@@H](C2=O)N(C)C(=O)CN(C)C1=O [PP1129, (2S,8S,14S,20S,23S,27S,30S,36S,38Z)-20-cyclopentyl-8-[2-[3,5-difluoro-4-(trifluoromethyl)phenyl]ethyl]-27-ethyl-12,12-difluoro-N,N,4,19,22,26,32,35-octamethyl-30-[(1S)-1-methylpropyl]-3,6,9,15,18,21,25,28,31,34,42-undecaoxo-2-[[4-(trifluoromethyl)phenyl]methyl]spiro[1,4,7,10,16,19,22,26,29,32,35-undecazatricyclo[34.5.1.0^10,14]dotetracont-38-ene-17,1′-cyclobutane]-23-carboxamide]	10.2	–	–	–	A (a compound having 10 or more and less than 20 is denoted as A)	0.056	B (a compound having 3 or more and less than 10 is denoted as B)	–
CCO[C@@H]1C[C@H]2C(=O)NC3(CCC3)C(=O)N(C)[C@@H](C3CCCC3)C(=O)N(C)[C@H](C(=O)N(C)C)CC(=O)N(C)[C@@H](CC3CC3)C(=O)N[C@@H]([C@@H](C)CC)C(=O)N(C)CC(=O)N(C)[C@H]3C/C=C\CCN(C3=O)[C@@H](CC3CCC(F)(F)CC3)C(=O)N(C)CC(=O)N[C@@H](CCc3cc(F)c(C(F)(F)F)c(F)c3)C(=O)N2C1 [PP1447, (2S,8S,12R,14S,20S,23S,27S,30S,36S,38Z)-20-cyclopentyl-27-(cyclopropylmethyl)-2-[(4,4-difluorocyclohexyl)methyl]-8-[2-[3,5-difluoro-4-(trifluoromethyl)phenyl]ethyl]-12-ethoxy-N,N,4,19,22,26,32,35-octamethyl-30-[(1S)-1-methylpropyl]-3,6,9,15,18,21,25,28,31,34,42-undecaoxo-spiro[1,4,7,10,16,19,22,26,29,32,35-undecazatricyclo[34.5.1.0^10,14]dotetracont-38-ene-17,1′-cyclobutane]-23-carboxamide]	28.9	A (a compound having 10 or more and less than 20 is denoted as A)	0.12	A (a compound having 10 or more and less than 20 is denoted as A)	–	–	–	–
CCO[C@@H]1C[C@H]2C(=O)NC3(CCC3)C(=O)N(C)[C@@H](C3CCCC3)C(=O)N(C)[C@H](C(=O)N(C)C)CC(=O)N(C)[C@@H](CC)C(=O)N[C@@H]([C@@H](C)CC)C(=O)N(C)CC(=O)N(C)[C@H]3C/C=C\CCN(C3=O)[C@@H](Cc3ccc(C(F)(F)F)cc3)C(=O)N(C)CC(=O)N[C@@H](CCc3ccc(Cl)c(Cl)c3)C(=O)N2C1 [PP1249]	55.4	A (a compound having 10 or more and less than 20 is denoted as A)	0.18	A (a compound having 10 or more and less than 20 is denoted as A)	–	–	–	–
CC[C@H](C)[C@@H]1NC(=O)[C@H](COC)N(C)C(=O)C[C@@H](C(=O)N2CCOCC2)N(C)C(=O)[C@H](C2CCCC2)N(C)C(=O)C2(CCC2)NC(=O)[C@@H]2CCCN2C(=O)[C@H](CCc2cc(F)c(C(F)(F)F)c(F)c2)NC(=O)CN(C)C(=O)[C@H](Cc2ccc(C(F)(F)F)cc2)N2CCCCC[C@@H](C2=O)N(C)C(=O)CNC1=O [PP0860]	143	–	–	–	B (a compound having 3 or more and less than 10 is denoted as B)	1.1	B (a compound having 3 or more and less than 10 is denoted as B)	–
CCOC[C@H]1C(=O)N[C@@H]([C@@H](C)CC)C(=O)N(C)CC(=O)N(C)[C@H]2C/C=C\CCN(C2=O)[C@@H](Cc2ccc(C)cc2)C(=O)N(C)CC(=O)N[C@@H](CCc2cc(F)c(C(F)(F)F)c(F)c2)C(=O)N2C[C@H](OCC)C[C@H]2C(=O)NC2(CC(C)(C)C2)C(=O)N(C)[C@@H](C2CCCC2)C(=O)N(C)[C@H](C(=O)N(C)C)CC(=O)N1C [PP2397]	4.7	–	–	–	A (a compound having 10 or more and less than 20 is denoted as A)	0.051	A (a compound having 10 or more and less than 20 is denoted as A)	–
CCO[C@@H]1C[C@H]2C(=O)NC3(CCC3)C(=O)N(C)[C@@H](C(CC)CC)C(=O)N(C)[C@H](C(=O)N(C)C)CC(=O)N(C)[C@@H](CC3CC3)C(=O)N[C@@H]([C@@H](C)CC)C(=O)N(C)CC(=O)N(C)[C@H]3C/C=C\CCN(C3=O)[C@@H](Cc3ccc(C(F)(F)F)cc3)C(=O)N(C)CC(=O)N[C@@H](CCc3ccc4sccc4c3)C(=O)N2C1 [PP1227]	128	A (a compound having 10 or more and less than 20 is denoted as A)	1.6	A (a compound having 10 or more and less than 20 is denoted as A)	–	–	–	–

— patent US20240158446A1, “CYCLIC COMPOUND HAVING SELECTIVE INHIBITORY ACTION ON KRAS OVER HRAS AND NRAS” (CHUGAI SEIYAKU KABUSHIKI KAISHA, priority 2021, published 2024)
